Measurements reported in BindingDB's records for doi:10.1021/jm301144g (Human Biomolecular Research Institute, 2012).

Target: TGF-beta receptor type-2 (Homo sapiens, UniProt P37173)
Test: Inhibition of TGBR2 signaling in human HEK293T cells assessed as inhibition of SMAD activation after 2 to 22 hrs by dual Luciferase Assay

Chain of TGF-beta receptor type-2 (P37173 whole entry): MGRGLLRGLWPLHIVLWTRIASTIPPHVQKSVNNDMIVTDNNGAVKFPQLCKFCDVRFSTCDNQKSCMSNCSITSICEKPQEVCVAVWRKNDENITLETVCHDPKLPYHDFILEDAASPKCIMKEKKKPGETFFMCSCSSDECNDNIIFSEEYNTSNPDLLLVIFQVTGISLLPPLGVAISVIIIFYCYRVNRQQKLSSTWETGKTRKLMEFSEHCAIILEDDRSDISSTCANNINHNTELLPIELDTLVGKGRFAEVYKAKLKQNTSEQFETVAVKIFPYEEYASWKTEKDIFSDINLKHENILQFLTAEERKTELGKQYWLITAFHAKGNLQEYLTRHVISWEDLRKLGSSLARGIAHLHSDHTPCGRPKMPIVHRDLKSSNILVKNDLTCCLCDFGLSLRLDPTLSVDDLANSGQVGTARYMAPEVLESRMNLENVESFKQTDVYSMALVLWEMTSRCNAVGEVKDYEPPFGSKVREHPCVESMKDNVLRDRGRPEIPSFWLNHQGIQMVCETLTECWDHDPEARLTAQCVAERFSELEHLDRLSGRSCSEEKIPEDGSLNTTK

IC50: 460 nM
Compound: CCOC(=O)C1=C(C)N=C2CC(C)(C)CC(=O)C2C1c1ccc(-c2ccccc2)cc1 (stereo unspecified)
